Laboratory results from patent publication US9315544B2, “Method of treating eosinophilia by administering an immunomodulating peptide” (National Tsing Hua University, priority 2012, dated 2016).

Assays:
human lung cancer H460 = assay: Transwell migration assay, H460; assay type: cell-based; conditions: 12.5 μM CMP pretreatment 30 min, 18 hours
Description: (§1) FIG. 10 illustrates Tumor migration inhibition by CMP. A549, H460 and mouse colon cancer cells were incubated with CMP at 37° C. for 30 min before adding to the top chamber of transwell membranes in 24-well dishes at a density of 2×10^4 cells/well. Data represented the mean±S.E. of triplicate samples from a representative experiment. The experiment was repeated at least three times with similar results
(§2) Cancer cell inhibition by CMP was performed in a 24-well Transwell chamber consisting of a cell culture insert (6.4 mm diameter, 8-1 μm pore polyethylene tetraphtalate membrane, [Becton Dickinson]) set in each well of a 24-well companion plate (Becton Dickinson). Briefly, 3×10^4 cancer cells were suspended and pretreated with 5 and 12.5 μM CMP for 30 min in a total volume of 200 μL. Cell suspensions were inoculated into the upper chamber of an insert, 5% fetal bovine serum (FBS) in medium as a chemoattractant was added to the plate well in the bottom chamber, and incubated for 18 hours in a humidified incubator at 37° C. with 5% CO2. The non-migratory cells on the upper membrane surface were removed with a cotton swab, and the migratory cells attached to the lower membrane surface were fixed with 4% paraformaldehyde and stained with 0.2% crystal violet. The number of migrated cells was counted in four randomly selected high power fields under microscope. […]

mouse colon cancer cells = assay: Transwell migration assay, mouse colon cancer cells; assay type: cell-based; conditions: 5 μM CMP pretreatment 30 min, 18 hours
Description: as §1, §2

IL-13 = assay: Cytokine ELISA of lung protein extract (IL-13); assay type: in vivo, BALB/c mouse; conditions: eIN+mIT, mIT+eIN and eIN+mIT+eIN groups
Text: (§3) FIG. 4 illustrates experimental design. All groups except control group were immunized with mite crude extract allergen on days 1 and 8, then mite crude extract allergen intratracheally on day 15 in all mite treated group, BALB/c mouse were divided into six groups (1) control group (PBS), (2) mites delivered intratracheally (mIT, mite on day 15) alone, (3) CMP intranasal (eIN, CMP on days 1 to 22) alone, (4) preventive-treatment group (eIN+mIT, CMP on days 1 to 14, mite on day 15) (5) therapy-treatment group (mIT+eIN, mite on day 15, CMP on days 15 to 22), and (6) preventive- and therapeutic-treatment group (eIN+mIT+eIN, CMP on days 1 to 22, mite on day 15).
(§4) FIG. 9 illustrates inhibitory effect of CMP on lung protein extract. Lung protein extracts from different groups of mouse were assayed for the indicated cytokines. Data represent one of three independent experiments. Levels of CCL-11, IL-5, IL-13 and IL-17A/F levels in lung protein extracts from mouse from treatment groups were measured by Enzyme-linked immunosorbent assay (ELISA). Each result was expressed as the mean±S.D., n=4. **, P<0.01, ***, P<0.001. […]
(§5) Levels of cytokines from lung protein extract were measured by ELISA. […] The microplates were read at 450 nm with an ELISA reader (Thermo Labsystems, Waltham, Mass., USA). […]

IL-17A/F = assay: Cytokine ELISA of lung protein extract (IL-17A/F); assay type: in vivo, BALB/c mouse; conditions: eIN+mIT, mIT+eIN and eIN+mIT+eIN groups
Text: as §3, §4, §5

NYRWRCKNQN (CMP)
decrease of migration activity (human lung cancer H460): 50%
decrease of migration activity (mouse colon cancer cells): 60%
IL-13 in lung protein extract compared with mIT group (IL-13): lower concentrations
IL-17A/F levels in lung protein extract compared with mIT group (IL-17A/F): much lower
